Assay results from patent publication US7846936B2, “Combinations for the treatment of diseases involving cell proliferation, migration or apoptosis of myeloma cells or angiogenesis” (Boehringer Ingelheim International GmbH, priority 2003, dated 2010).

What was measured:
[1] = system: SKOV-3 cells (human ovarian carcinoma); test: SKOV-3 xenograft combination experiment; assay type: in vivo, nude mice (NMRI nu/nu); details: SKOV-3 tumours in nude mice, 15 mg/kg daily per os, day 31
Procedure: The following experiment was performed in order to investigate the effect of a combination therapy with suboptimal doses of an antagonist of at least one receptor selected from VEGFR 1 to 3, PDGFRα and β, FGFR1, 2 and 3, EGFR, HER2, IGF1R, HGFR or c-Kit, which is further an antagonist of a src tyrosine kinase family member, namely the di-chloride salt of (Z)-3-(1-(4-(N-((4-methyl-piperazin-1-yl)-methylcarbonyl)-N-methyl-amino)-phenylamino)-1-phenyl-methylene]-6-methoxycarbonyl-2-indolinone (compound referred to as C12(T)), which is the di-chloride salt of above exemplified compound (T), and a dual antagonist of the epidermal growth factor (EGF) receptor and of the human epidermal growth factor of type 2 (HE type 2) receptor, namely the compound 4-[(3-chloro-4-fluorophenyl)amino]-6-{[4-(N,N-dimethylamino)-1-oxo-2-buten-1-yl]amino}-7-((S)-tetrahydrofuran-3-yloxy)-quinazoline, (compound referred to as EGFR/HER2 inh., and described in WO 02/50043 as exemplified compound of Example 1(10)), on the reduction of tumour growth, in comparison to the mono-therapies at the same doses. […]
Daily per os treatment was initially performed for 31 days. […] The calculated treated tumour to control tumour (T/C) ratio at this time point was 35% for the group treated with 15 mg/kg EGFR/HER2 inh., 32% for the group treated with 50 mg/kg C12(T), and 13% for the group treated with the combination. […]

[2] = system: IL-6 secretion by BMSC mono-cultures; test: IL-6 secretion of BMSC mono-cultures (Table III); assay type: cell-based
Description: (§1) For comparison, the inhibition effect on BMSC mono-cultures (native) and, as control, the level of secretion of U266 mono-cultures, were also investigated.

[3] = system: IL-6 secretion by BMSC cells; test: IL-6 secretion by bone marrow stromal cells (Table II); assay type: cell-based
Description: For comparison, the inhibition effect with inhibition of anti-bFGF (+anti-bFGF), anti-VEGF (+anti-VEGF) and a combination of anti-bFGF and anti-VEGF (+anti-VEGF+anti-bFGF) were also investigated.

Lyn = Lyn (Homo sapiens, UniProt P07948); test: kinase inhibition panel (Table I); assay type: biochemical
Chain of Lyn (P07948 whole entry, species assumed): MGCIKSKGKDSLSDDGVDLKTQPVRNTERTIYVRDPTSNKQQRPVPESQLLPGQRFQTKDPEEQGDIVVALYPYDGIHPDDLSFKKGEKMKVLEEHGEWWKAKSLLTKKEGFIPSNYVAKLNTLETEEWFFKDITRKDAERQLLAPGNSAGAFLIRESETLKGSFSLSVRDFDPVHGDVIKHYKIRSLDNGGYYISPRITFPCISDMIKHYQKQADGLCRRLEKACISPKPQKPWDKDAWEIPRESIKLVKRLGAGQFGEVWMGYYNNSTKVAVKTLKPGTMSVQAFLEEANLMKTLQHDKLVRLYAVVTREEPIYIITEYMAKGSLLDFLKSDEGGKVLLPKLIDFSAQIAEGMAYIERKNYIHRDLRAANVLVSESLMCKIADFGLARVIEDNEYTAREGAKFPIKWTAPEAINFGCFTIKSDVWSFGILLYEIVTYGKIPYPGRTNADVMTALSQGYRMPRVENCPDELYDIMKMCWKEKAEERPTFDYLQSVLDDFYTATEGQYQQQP

[4] = system: FaDu tumours (human squamous carcinoma cells); test: in vivo xenograft experiment, subcutaneous FaDu tumours; details: nude mice, 100 mg/kg orally twice weekly
Procedure: By increasing the dose to 200 mg/kg orally twice weekly an even better anti-tumour effect is expected.

[5] = system: IL-6 secretion by BMSC cells; test: IL-6 secretion by bone marrow stromal cells (Table II); assay type: cell-based; remark: listed apart in the source
[6] = system: IL-6 secretion in U-266 + BMSC co-cultures; test: IL-6 secretion in transwell and contact co-cultures of U-266 myeloma cells and BMSC cells (Table III); assay type: cell-based
Description: as §1

oral bioavailability = assay type: in vivo; details: mice
CDK2 = CDK2 (Homo sapiens, UniProt P24941); test: kinase inhibition panel (Table I); assay type: biochemical
[7] = system: t(14;16) MM1.s myeloma cells; test: apoptosis of myeloma cells; assay type: cell-based
cell lines with t(4;14) = test: apoptosis on cell lines with t(4;14); assay type: cell-based; details: in vitro
[8] = clinically tested, also in conjunction with chemotherapy; cited from earlier work

CN(C)CC=CC(=O)Nc1cc2c(Nc3ccc(F)c(Cl)c3)ncnc2cc1O[C@H]1CCOC1 [EGFR/HER2 inh., 4-[(3-chloro-4-fluorophenyl)amino]-6-{[4-(N,N-dimethylamino)-1-oxo-2-buten-1-yl]amino}-7-((S)-tetrahydrofuran-3-yloxy)-quinazoline]
treated tumour to control tumour (T/C) ratio [1]: 35%

CCS(=O)(=O)O.COC(=O)c1ccc2c(c1)NC(=O)/C2=C(\Nc1ccc(N(C)C(=O)CN2CCN(C)CC2)cc1)c1ccccc1 [MES(T), monoethanesulfonate salt of 3-Z-[1-(4-(N-((4-methyl-piperazin-1-yl)-methylcarbonyl)-N-methyl-amino)-anilino)-1-phenyl-methylene]-6-methoxycarbonyl-2-indolinone]
IL-6 secretion, BMSC mono-cultures ([2]; MES(T) 50 nM): 213.4 | IL-6 secretion, BMSC mono-cultures ([2]; MES(T) 125 nM): 192.1 | IL-6 secretion, BMSC mono-cultures ([2]; MES(T) 250 nM): 69.9 | IL-6 secretion, BMSC mono-cultures ([2]; MES(T) 500 nM): 38.6 | IL-6 secretion by BMSC cells ([3]; +anti-VEGF + anti-bFGF, MES(T) 250 nM): 45.0 | IL-6 secretion by BMSC cells ([3]; +anti-VEGF + anti-bFGF, MES(T) 500 nM): 13.5 | IL-6 secretion by BMSC cells ([3]; +anti-bFGF, MES(T) 50 nM): 81.3 | IL-6 secretion by BMSC cells ([3]; +anti-bFGF, MES(T) 125 nM): 42.4 | IL-6 secretion by BMSC cells ([3]; +anti-bFGF, MES(T) 250 nM): 33.0 | IC50 (Lyn): 195 nM | T/C (Tumour/Control) value [4]: 31% | IL-6 secretion by BMSC cells ([5]; +VEGF, MES(T) 10 nM): 122.3 | IL-6 secretion by BMSC cells ([5]; +VEGF, MES(T) 50 nM): 130.7 | IL-6 secretion by BMSC cells ([5]; +VEGF, MES(T) 125 nM): 141.0 | IL-6 secretion by BMSC cells ([5]; +VEGF, MES(T) 250 nM): 65.5 | IL-6 secretion by BMSC cells ([5]; +VEGF, MES(T) 500 nM): 14.8 | IL-6 secretion by BMSC cells ([5]; +anti-VEGF + anti-bFGF, MES(T) 10 nM): 68.1 | IL-6 secretion by BMSC cells ([5]; +anti-VEGF + anti-bFGF, MES(T) 50 nM): 63.4 | IL-6 secretion by BMSC cells ([5]; +anti-VEGF + anti-bFGF, MES(T) 125 nM): 86.1 | IL-6 secretion by BMSC cells ([5]; +anti-VEGF, MES(T) 10 nM): 148.6 | IL-6 secretion by BMSC cells ([5]; +anti-VEGF, MES(T) 50 nM): 155.2 | IL-6 secretion by BMSC cells ([5]; +anti-VEGF, MES(T) 125 nM): 166.7 | IL-6 secretion by BMSC cells ([5]; +anti-VEGF, MES(T) 250 nM): 89.4 | IL-6 secretion by BMSC cells ([5]; +anti-VEGF, MES(T) 500 nM): 16.2 | IL-6 secretion by BMSC cells ([5]; +anti-bFGF, MES(T) 10 nM): 68.9 | IL-6 secretion by BMSC cells ([5]; +anti-bFGF, MES(T) 500 nM): 20.2 | IL-6 secretion by BMSC cells ([5]; +bFGF, MES(T) 10 nM): 150.5 | IL-6 secretion by BMSC cells ([5]; +bFGF, MES(T) 50 nM): 179.7 | IL-6 secretion by BMSC cells ([5]; +bFGF, MES(T) 125 nM): 91.2 | IL-6 secretion by BMSC cells ([5]; +bFGF, MES(T) 250 nM): 76.9 | IL-6 secretion by BMSC cells ([5]; +bFGF, MES(T) 500 nM): 43.4 | IL-6 secretion by BMSC cells ([5]; native, MES(T) 10 nM): 130.2 | IL-6 secretion by BMSC cells ([5]; native, MES(T) 50 nM): 170.4 | IL-6 secretion by BMSC cells ([5]; native, MES(T) 125 nM): 97.5 | IL-6 secretion by BMSC cells ([5]; native, MES(T) 250 nM): 76.5 | IL-6 secretion by BMSC cells ([5]; native, MES(T) 500 nM): 39.6 | IL-6 secretion, Contact U-266 + BMSC co-cultures ([6]; MES(T) 125 nM): 259.6 | IL-6 secretion, Contact U-266 + BMSC co-cultures ([6]; MES(T) 250 nM): 199.4 | IL-6 secretion, Contact U-266 + BMSC co-cultures ([6]; MES(T) 500 nM): 114.7 | effect on IL-6 secretion of BMSC cultures stimulated by myeloma cells ([6]; transwell and contact co-cultures): decrease to its basal (native) value the level of IL-6 secretion | IL-6 secretion, Transwell U-266 + BMSC co-cultures ([6]; MES(T) 50 nM): 354.5 | IL-6 secretion, Transwell U-266 + BMSC co-cultures ([6]; MES(T) 125 nM): 297.6 | IL-6 secretion, Transwell U-266 + BMSC co-cultures ([6]; MES(T) 250 nM): 231.1 | IL-6 secretion, Transwell U-266 + BMSC co-cultures ([6]; MES(T) 500 nM): 123.9 | oral bioavailability (oral bioavailability): orally bioavailable | IC50 (CDK2): > 10000 nM | effect on dexamethasone-induced apoptosis ([7]; combined with dexamethasone): enhances the apoptosis induced by dexamethasone | apoptosis of myeloma cells ([7]; t(14;16) MM1.s myeloma cells, MES(T) alone): pro-apoptotic effects | apoptosis on cell lines with t(4;14) (cell lines with t(4;14)): Direct induction of apoptosis

Cc1cc(C)c(/C=C2\C(=O)Nc3ccccc32)[nH]1 [SU5416]
side effect in clinical testing [8]: thromboembolic events
